Measurements reported in PMC7129916 (Clinical Microbiology and Infection, 2015).

Experiments:
[1] = set-up: species or system human; settings: in vivo
H. influenzae = assay: microbe, parasite or virus in culture; type: cell-based; settings: Haemophilus influenzae
M. catarrhalis = assay: microbe, parasite or virus in culture; type: cell-based; settings: Moraxella catarrhalis
[2] = in vivo

For `C[C@@H](O)[C@H]1C(=O)N2C(C(=O)O)=C(S[C@@H]3CN[C@H](C(=O)Nc4cccc(C(=O)O)c4)C3)[C@H](C)[C@H]12` [ETP], the “Adjusted LOS” value [1] was 11.9.
`COc1c(N2CCNC(C)C2)c(F)cc2c(=O)c(C(=O)O)cn(C3CC3)c12` (stereo not shown) [GFX, gatifloxacin] showed an MIC50 (H. influenzae) of at most 0.03 µg/mL and an MIC50 (M. catarrhalis) of at most 0.03 µg/mL.
With `C=CC[C@@H]1/C=C(\C)C[C@H](C)C[C@H](OC)[C@H]2O[C@@](O)(C(=O)C(=O)N3CCCC[C@H]3C(=O)O[C@H](/C(C)=C/[C@@H]3CC[C@@H](O)[C@H](OC)C3)[C@H](C)[C@@H](O)CC1=O)[C@H](C)C[C@@H]2OC` [Tacrolimus, tacrolimus] the “concomitant drug bioavailability (AUC %) with POS vs alone” value [2] was 458%.
